In brackets after ≈: the same amount, converted by molar mass. Read-outs that look alike come from different tables or passages of the source. Where a SMILES comes first, the peptide text is derived from it. Bridges are numbered along the chain shown (N, C = ends). [ ]: non-standard residue; d: D form. The star is where a group is joined. d(aIle) = CC[C@H](C)[C@@H](N)C(=O)O; X1 = CC[C@H](C)CCCCC(=O)*; dDab = NCC[C@@H](N)C(=O)O; Octanoyl = CCCCCCCC(=O)*; Dab = NCC[C@H](N)C(=O)O
Columns and labels:
Rabbit red blood cells = assay: Hemolysis assay; assay type: cell-based; conditions: rabbit red blood cells in PBS, 37 °C, 1 h, absorbance at 405 nm, normalization to the Triton X-100 control; 0.25 to 128 μg/mL tested
Method: Peptides, dissolved in DMSO, were dispensed into 96-well round-bottom microplates using a TECAN D300e dispenser and subsequently diluted with 100 μL of PBS. PBS or 2% Triton X-100 was used as negative and positive controls, respectively. Rabbit red blood cells (BioConcept) were diluted in PBS to a final concentration of 2%, and 100 μL was added to each well of the prepared 96-well plates. The final concentration of the test compounds was 0.25 to 128 μg/mL. Plates were incubated at 37 °C for 1 h and afterward subjected to centrifugation at 1000g for 5 min. Then, 30 μL of supernatant was transferred to a new round-bottom plate, and absorbance was measured at 405 nm (TECAN Infinite F200). EC50s were calculated after blank subtraction and normalization to the Triton control.

K. pneumoniae ATCC 13883 = assay type: cell-based, Klebsiella pneumoniae
Method: (§1) All minimum inhibitory concentrations (MICs) were determined according to the Clinical and Standards Laboratory Institute (CLSI) guidelines. In brief, agar plates were inoculated from glycerol stocks and incubated overnight at 35 °C. Peptide DMSO stocks were dispensed into 96-well round-bottom plates using a TECAN D300e dispenser. Colistin sulfate (Sigma-Aldrich) was dissolved in water and serially diluted in a cation-adjusted Mueller Hinton broth (10 μL per well). Final concentrations of the test compounds were 0.06 to 64 μg/mL. Inocula were prepared by direct colony suspension in NaCl at 0.5 MacFarland, which was further diluted 200-fold in cation-adjusted Mueller Hinton broth for a target inoculum of 2 × 10^5 colony forming units (CFUs)/mL. 100 μL portion of the prepared inoculum was added to each well of the prepared plates containing the test compounds. Plates were sealed with parafilm and incubated for 20 h at 35 °C. Images of all plates were recorded, and MIC was assessed visually.

K. pneumoniae 1228586 = assay type: cell-based, Klebsiella pneumoniae
Method: as §1

K. pneumoniae 1227947 = assay type: cell-based, Klebsiella pneumoniae
Method: as §1

A. baumannii ATCC 17978 = assay type: cell-based, Acinetobacter baumannii
Method: as §1

A. baumannii HUMC1 = assay type: cell-based, Acinetobacter baumannii
Method: as §1

A. baumannii IHMA 777621 = assay type: cell-based, Acinetobacter baumannii
Method: as §1

HepG2 cells = assay: Cytotoxicity determination (CellTiter-Glo); assay type: cell-based; conditions: HepG2, medium without serum, 24 h, normalization to the untreated control, 1 to 128 μg/mL tested
Method: HepG2 cells were grown in EMEM (Sigma) supplemented with 2 mM glutamine and 10% fetal bovine serum (Fisher) at 37 °C, 5% CO2. 20′000 cells per well were seeded into clear tissue culture-treated 96-well plates and incubated for 24 h. Peptides, dissolved in DMSO, were dispensed into 96 deep well plates (TECAN D300e dispenser) and diluted to a final concentration of 1 to 128 μg/mL using fresh medium without serum. The next day, the old media were removed from the cells, and 200 μL of the prepared compound dilutions was added per well. Plates were incubated for another 24 h before assessing the cell viability using the CellTiter-Glo kit (Promega) according to the manufacturer’s protocol. IC50s were calculated after normalization to the untreated control.

E. coli 1214245 = assay type: cell-based, Escherichia coli
Method: as §1

E. coli ATCC 25922 = assay type: cell-based, Escherichia coli
Method: as §1

E. coli 1220120 = assay type: cell-based, Escherichia coli
Method: as §1

E. faecium ATCC 51559 = assay type: cell-based, Enterococcus faecium
Method: as §1

E. faecium IHMA 890472 = assay type: cell-based, Enterococcus faecium
Method: as §1

P. aeruginosa 1226072 = assay type: cell-based, Pseudomonas aeruginosa
Method: as §1

P. aeruginosa 1218019 = assay type: cell-based, Pseudomonas aeruginosa
Method: as §1

P. aeruginosa PAO1 = assay type: cell-based, Pseudomonas aeruginosa
Method: as §1

E. faecalis ATCC 29212 = assay type: cell-based, Enterococcus faecalis
Method: as §1

ATCC 25922 = assay type: cell-based, Enterococcus faecalis
Method: as §1

S. aureus ATCC 29213 = assay type: cell-based, Staphylococcus aureus
Method: as §1

S. aureus 1126387 = assay type: cell-based, Staphylococcus aureus
Method: as §1

S. aureus UAMS-1625 = assay type: cell-based, Staphylococcus aureus; conditions: S. aureus UAMS-1625 (BV18); CLSI broth dilution, cation-adjusted Mueller Hinton broth, 20 h, 35 °C, read visually
Method: as §1

SMILES	Hemolysis EC50 (Rabbit red blood cells) [mg/L]	MIC (K. pneumoniae ATCC 13883; ATCC 13883, 20 h) [mg/L]	MIC (K. pneumoniae 1228586; 1228586, 20 h) [mg/L]	MIC (K. pneumoniae 1227947; 1227947, 20 h) [mg/L]	MIC (A. baumannii ATCC 17978; ATCC 17978, 20 h) [mg/L]	MIC (A. baumannii HUMC1; HUMC1, 20 h) [mg/L]	MIC (A. baumannii IHMA 777621; IHMA 777621, 20 h) [mg/L]	MIC (E. coli 1214245; 1214245, 20 h) [mg/L]	MIC (E. coli ATCC 25922; ATCC 25922, 20 h) [mg/L]	MIC (E. coli 1220120; 1220120, 20 h) [mg/L]	MIC (E. faecium ATCC 51559; ATCC 51559, 20 h) [mg/L]	MIC (E. faecium IHMA 890472; IHMA 890472, 20 h) [mg/L]	MIC (P. aeruginosa 1226072; 1226072, 20 h) [mg/L]	MIC (P. aeruginosa 1218019; 1218019, 20 h) [mg/L]	MIC (P. aeruginosa PAO1; PAO1, 20 h) [mg/L]	MIC (E. faecalis ATCC 29212; ATCC 29212, 20 h) [mg/L]	MIC (ATCC 25922; ATCC 25922, 20 h) [mg/L]	MIC (S. aureus ATCC 29213; ATCC 29213, 20 h) [mg/L]	MIC (S. aureus 1126387; 1126387, 20 h) [mg/L]	MIC (S. aureus UAMS-1625) [mg/L]	other results
CCCCCCCC(=O)N[C@@H](C(=O)N[C@H](CCN)C(=O)NCC(=O)N[C@H](CO)C(=O)N[C@H](Cc1c[nH]c2ccccc12)C(=O)N[C@@H](CO)C(=O)N[C@@H](CCN)C(=O)N[C@H](CCN)C(=O)N[C@@H](Cc1c[nH]cn1)C(=O)N[C@@H](CCC(=O)O)C(=O)N[C@H](C(=O)N[C@@H](C(=O)N[C@@H](C)C(=O)O)[C@@H](C)CC)C(C)C)C(C)C [Oct-His9] (Octanoyl-[dV][dDab]G[dS][dW]S[Dab][dDab]HEV[d(aIle)]A-OH)	>128	16 (≈ 10.6 µM)	8 (≈ 5.3 µM)	32 (≈ 21.2 µM)	>64	>64	>64	16 (≈ 10.6 µM)	16 (≈ 10.6 µM)	8 (≈ 5.3 µM)	>64	>64	4 (≈ 2.65 µM)	2 (≈ 1.32 µM)	32 (≈ 21.2 µM)	>64	>64	>64	>64	>64	IC50 on HepG2 w/o FCS (HepG2 cells): >128 mg/L
CCCCCCCC(=O)N[C@@H](C(=O)N[C@H](CCN)C(=O)NCC(=O)N[C@H](CO)C(=O)N[C@H](Cc1c[nH]c2ccccc12)C(=O)N[C@@H](CO)C(=O)N[C@@H](CCN)C(=O)N[C@H](CCN)C(=O)N[C@H](C(=O)N[C@@H](CCC(=O)O)C(=O)N[C@H](C(=O)N[C@@H](C(=O)N[C@@H](C)C(=O)O)[C@@H](C)CC)C(C)C)[C@@H](C)CC)C(C)C [Oct-Ile9] (Octanoyl-[dV][dDab]G[dS][dW]S[Dab][dDab]IEV[d(aIle)]A-OH)	>128	2 (≈ 1.35 µM)	4 (≈ 2.69 µM)	4 (≈ 2.69 µM)	16 (≈ 10.8 µM)	16 (≈ 10.8 µM)	16 (≈ 10.8 µM)	2 (≈ 1.35 µM)	2 (≈ 1.35 µM)	2 (≈ 1.35 µM)	64 (≈ 43 µM)	32 (≈ 21.5 µM)	16 (≈ 10.8 µM)	16 (≈ 10.8 µM)	64 (≈ 43 µM)	64 (≈ 43 µM)	64 (≈ 43 µM)	64 (≈ 43 µM)	>64	>64	
CCCCCCCC(=O)N[C@@H](C(=O)N[C@H](CCN)C(=O)NCC(=O)N[C@H](CO)C(=O)N[C@H](Cc1c[nH]c2ccccc12)C(=O)N[C@@H](CO)C(=O)N[C@@H](CCN)C(=O)N[C@H](CCN)C(=O)N[C@@H](Cc1ccc(O)cc1)C(=O)N[C@@H](CCC(=O)O)C(=O)N[C@H](C(=O)N[C@@H](C(=O)N[C@@H](C)C(=O)O)[C@@H](C)CC)C(C)C)C(C)C [Oct-Tyr9] (Octanoyl-[dV][dDab]G[dS][dW]S[Dab][dDab]YEV[d(aIle)]A-OH)		4 (≈ 2.6 µM)	4 (≈ 2.6 µM)	4 (≈ 2.6 µM)	32 (≈ 20.8 µM)	32 (≈ 20.8 µM)	32 (≈ 20.8 µM)	2 (≈ 1.3 µM)	2 (≈ 1.3 µM)	4 (≈ 2.6 µM)	64 (≈ 41.6 µM)	32 (≈ 20.8 µM)	4 (≈ 2.6 µM)	4 (≈ 2.6 µM)	64 (≈ 41.6 µM)	64 (≈ 41.6 µM)	64 (≈ 41.6 µM)	>64	>64	>64	
CC[C@H](C)CCCCC(=O)N[C@@H](CCN)C(=O)N[C@H](C(=O)N[C@@H](CCN)C(=O)N[C@H]1CCNC(=O)[C@H]([C@@H](C)O)NC(=O)[C@H](CCN)NC(=O)[C@H](CCN)NC(=O)[C@H](CC(C)C)NC(=O)[C@@H](CC(C)C)NC(=O)[C@H](CCN)NC1=O)[C@@H](C)O [colistin, reference compound] (X1-[Dab]T[Dab][Dab][Dab][dL]L[Dab][Dab]T; lactam 4-C (inferred); N-terminus assumed)																				>64	MIC (K. pneumoniae ATCC 13883; K. pneumoniae ATCC 13883 (BV306), CLSI broth dilution, cation-adjusted Mueller Hinton broth, 20 h, 35 °C, read visually): 1 mg/L (≈ 0.855 µM); MIC (K. pneumoniae 1228586; K. pneumoniae 1228586 (BV1447), CLSI broth dilution, cation-adjusted Mueller Hinton broth, 20 h, 35 °C, read visually): 64 mg/L (≈ 54.7 µM); MIC (K. pneumoniae 1227947; K. pneumoniae 1227947 (BV1445), CLSI broth dilution, cation-adjusted Mueller Hinton broth, 20 h, 35 °C, read visually): 0.5 mg/L (≈ 0.428 µM); MIC (A. baumannii ATCC 17978; A. baumannii ATCC 17978 (BV160), CLSI broth dilution, cation-adjusted Mueller Hinton broth, 20 h, 35 °C, read visually): 1 mg/L (≈ 0.855 µM); MIC (A. baumannii HUMC1; A. baumannii HUMC1 (BV374), CLSI broth dilution, cation-adjusted Mueller Hinton broth, 20 h, 35 °C, read visually): 1 mg/L (≈ 0.855 µM); MIC (A. baumannii IHMA 777621; A. baumannii IHMA 777621 (BV94), CLSI broth dilution, cation-adjusted Mueller Hinton broth, 20 h, 35 °C, read visually): 64 mg/L (≈ 54.7 µM); IC50 on HepG2 w/o FCS (HepG2 cells): >128 mg/L; MIC (E. coli 1214245; E. coli 1214245 (BV1469), CLSI broth dilution, cation-adjusted Mueller Hinton broth, 20 h, 35 °C, read visually): 32 mg/L (≈ 27.4 µM); MIC (E. coli ATCC 25922; E. coli ATCC 25922 (BV23), CLSI broth dilution, cation-adjusted Mueller Hinton broth, 20 h, 35 °C, read visually): 1 mg/L (≈ 0.855 µM); MIC (E. coli 1220120; E. coli 1220120 (BV1475), CLSI broth dilution, cation-adjusted Mueller Hinton broth, 20 h, 35 °C, read visually): 0.5 mg/L (≈ 0.428 µM); MIC (E. faecium ATCC 51559; E. faecium ATCC 51559 (BV159), CLSI broth dilution, cation-adjusted Mueller Hinton broth, 20 h, 35 °C, read visually): >64 mg/L; MIC (E. faecium IHMA 890472; E. faecium IHMA 890472 (BV144), CLSI broth dilution, cation-adjusted Mueller Hinton broth, 20 h, 35 °C, read visually): >64 mg/L; MIC (P. aeruginosa 1226072; P. aeruginosa 1226072 (BV1551), CLSI broth dilution, cation-adjusted Mueller Hinton broth, 20 h, 35 °C, read visually): 0.5 mg/L (≈ 0.428 µM); MIC (P. aeruginosa 1218019; P. aeruginosa 1218019 (BV1544), colistin-resistant, CLSI broth dilution, cation-adjusted Mueller Hinton broth, 20 h, 35 °C, read visually): >64 mg/L; MIC (P. aeruginosa PAO1; P. aeruginosa PAO1 (BV34), CLSI broth dilution, cation-adjusted Mueller Hinton broth, 20 h, 35 °C, read visually): 2 mg/L (≈ 1.71 µM); MIC (E. faecalis ATCC 29212; E. faecalis ATCC 29212 (BV29), CLSI broth dilution, cation-adjusted Mueller Hinton broth, 20 h, 35 °C, read visually): >64 mg/L; MIC (ATCC 25922; E. faecalis ATCC 25922 (BV99), CLSI broth dilution, cation-adjusted Mueller Hinton broth, 20 h, 35 °C, read visually): >64 mg/L; MIC (S. aureus ATCC 29213; S. aureus ATCC 29213 (BV249), CLSI broth dilution, cation-adjusted Mueller Hinton broth, 20 h, 35 °C, read visually): >64 mg/L; MIC (S. aureus 1126387; S. aureus 1126387 (BV1402), CLSI broth dilution, cation-adjusted Mueller Hinton broth, 20 h, 35 °C, read visually): >64 mg/L
